Experimental data reported in patent publication US7638343B2, “Method to identify or evaluate compounds useful in the field of fragrances and aromas” (priority 2004, dated 2009).

Columns and labels:
human respiratory tract [1] = assay: Metabospace: real-time APCI-MS analysis of exhaled breath after inhalation of saturated headspace of test compound; format: in vivo; conditions: for decrease of mass chromatogram signal intensity as a function of inhalation/exhalation cycles (release in exhaled breath): after nasal inhalation of the substrate, about 30 inhalation/exhalation cycles
Method: The “Metabospace” technology allows real-time detection and analysis of in vivo generated metabolites (exhaled volatiles) starting from compounds of interest. First, a test subject inhales the saturated headspace of a volatile compound. The saturated headspace may be provided as described in the examples herein-below. The breath is exhaled directly into a glass funnel, which works as interface to an analysis device where mass spectra are recorded by a quadrupole mass spectrometer equipped with an atmospheric pressure chemical ionization (APCI) ion source with a modified interface which allows the measurement of fast dynamic changes of volatiles as described in Grab, W., and Gfeller, H. In: ACS Symposium Series 763—Flavor Release (Roberts, D. D., and Taylor, A. J., Eds.) American Chemical Society, Washington, D.C. (2002). The procedure may be performed for example as described further in the examples herein below.
Mass spectrum scans detect the entire range of pseudomolecular ions as well as ions of fragments of molecules. If candidate metabolites are already known, e.g. from in vitro data, the mass chromatogram corresponding to the pseudomolecular ion can be directly visualized together with the chromatogram for the substrate. Acetone is always present in human breath and can be used to show the respiration pattern. Mass spectrum scans of volatiles either exhaled from the nasal or the oral cavity are recorded in narrow time spans, for example twice per second, to follow changes in breath composition as a function of time and respiration cycles. Usually, a series of scans are done to detect other ions that may be linked to the substrate and/or metabolites, which can e.g. be derived from fragments of the substrate and/or the metabolites, as is well-known to the person skilled in the art. Various mass spectrum scans are performed as is well known in the art. In the present invention, a large number of mass spectrum scans are be recorded by the mass spectrometer (for example 2 scans per second). The total ion chromatogram (TIC) gives the total of signals. Individual signals, e.g. the pseudomolecular ion [M+H]^+ for acetone at m/z 59, may be singled out and analysed over time in so-called “mass chromatograms”. Metabolites appear as additional signals in scans, and specific signals are followed over time in respective mass chromatograms. During the first inhalation/exhalation cycles, scans are analysed for ions which are present in exhalations following the inhalation of surrounding air (blank, background) and are not derived from the test compound or from metabolites. It is well known in the art how to identify unknown signals. Depending on the chemistry of the test compound and the possible metabolic reactions which can take place, particular ions are expected to occur if such metabolism takes place. To narrow down the possibilities, a hypothesis based on the test compound (enzyme substrate) and potential biotransformation reactions resulting in metabolites is used. For example, metabolites that result from reactions of the test compound with oxidizing enzymes belonging to the group of CYP enzymes may undergo metabolism including hydroxylation or epoxidation reactions, and specific signals for such metabolites may be generally found at the m/z number of the substrate plus 16. […]

[2] = biological target: T1, nasal metabolic enzyme CYP2A13 (Homo sapiens, UniProt Q16696); assay: Metabospace with volatile suppressor inhaled immediately prior to test compound; format: in vivo; conditions: suppressor (inhibitor of CYP2A13) inhaled immediately prior to test compound; compared with runs without suppressor
T1 construct: from tissue; host or cells: nasal cavity / respiratory tract of a living test subject
T1 sequence (Q16696 1-494): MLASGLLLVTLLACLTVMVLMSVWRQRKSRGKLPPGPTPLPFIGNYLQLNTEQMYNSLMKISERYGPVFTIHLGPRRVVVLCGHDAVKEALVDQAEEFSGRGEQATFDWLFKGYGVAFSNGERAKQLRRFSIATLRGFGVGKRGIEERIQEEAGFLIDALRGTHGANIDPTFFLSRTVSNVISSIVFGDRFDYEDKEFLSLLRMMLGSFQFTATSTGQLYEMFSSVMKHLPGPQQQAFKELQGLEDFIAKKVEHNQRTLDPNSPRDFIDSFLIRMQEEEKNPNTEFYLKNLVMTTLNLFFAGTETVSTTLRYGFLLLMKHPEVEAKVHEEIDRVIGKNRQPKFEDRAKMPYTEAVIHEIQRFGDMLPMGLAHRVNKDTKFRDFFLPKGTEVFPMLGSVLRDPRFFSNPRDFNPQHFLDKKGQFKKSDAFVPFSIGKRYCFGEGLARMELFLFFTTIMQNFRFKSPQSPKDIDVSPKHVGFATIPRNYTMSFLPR
Method: A volatile suppressor compound (inhibitor of nasal metabolic enzyme CYP2A13) is inhaled immediately prior to the inhalation of the test compound 2-methoxyacetophenone.
The test subject performs three runs in a row: (1) test compound only; (2) suppressor followed by test compound; (3) test compound only. Before and between runs, blank controls are recorded (inhalation of room air and recording of 30 inhalation/exhalation cycles).
The procedure is performed as described in example 6A, however, as a test compound ketanone is used and ketanone and its metabolite 4-(4-hydroxyphenyl)butan-2-one (raspberry ketone) are detected as described in example 5.

olfactory perception = conditions: cited from earlier work; for olfactory threshold / odour intensity: raspberry aroma, Winter (1961) Helv. Chim. Acta 44:2110
human respiratory tract [3] = assay: Metabo-GM: exhaled breath trapped on Tenax TA resin, thermodesorption, GC-MS; format: in vivo
carboxyl esterase = assay: Metabo-GM with inhibitor of carboxyl esterase as suppressor inhaled before test compound; format: in vivo, human; conditions: for proportion of detected metabolite with suppressor compared to analysis without suppressor: carboxyl esterase inhibitor inhaled first, then test compound; for metabolite detected in exhaled breath by GC-MS: without suppressor
Method: The procedure is performed as described in examples 7 and 10 subject to the following modifications:
As suppressor, an inhibitor for carboxyl esterase is used. As test compound, phenethylacetate is used, which is a substrate for carboxyl esterase.
The procedure is performed as described in example 12A with an inhibitor for carboxyl esterase as suppressor, subject to the following modifications:
As test compound, styrallylacetate is used, which is a substrate for carboxyl esterase.

carboxyl esterases = assay: Cascade Olfactometer: perceived odour intensity and olfactory threshold of odorant with modulator (inhibitor of carboxyl esterases); format: in vivo, human
Method: A modulator is identified using an Olfactometer. As reference test compounds, odorant esters are used. A second test compound (potential modulator, modulator test compound) is tested in combination with these odorant test compounds. The odorant reference test compound is kept at a constant concentration with the modulator concentration being varied.
If metabolism is taking place, the amount of styrallylacetate which is stimulating the olfactory system is decreased.
A standard concentration (appropriate dilution of saturated headspace) of the odorant test compound is provided in one Olfactometer (cascade 1) as the reference, while in the second olfactometer (cascade 2) the odorant test compound is provided at the standard concentration supplemented with various concentrations of the modulator (appropriate dilutions of saturated headspace).
First, the threshold for the odorant styrallylacetate is determined for each test subject. The standard concentration is chosen so that it is perceived to be of week to moderate intensity as judged by each test subject.
The concentrations of the modulator test compound are chosen to be below the olfactory threshold of the test subject.
A sample is provided as headspace in a saturation chamber. The flow from said chamber is added to a carrier gas supply and mixed in a chamber which is connected with the sniffing port where a test subject detects the stimulus. Said flow (the headspace of the sample before addition to the carrier) is determined and adjusted so that the test subject rates said flow as medium intensity. This is the reference that is used in cascade 1. For styrallylacetate, a flow of 20 ml/min of the odorant is used. […]
The effect of the modulator on the olfactory threshold of styrallylacetate is determined in as follows. […]
Alternatively, a dose response curve is recorded using one olfactometer (Cascade 2) by providing samples above and below the detected olfactory threshold of the test subjects. This is compared to the known threshold of the compound which is recorded beforehand. […]

[4] = inhalation and exhalation both through the mouth

Row | Compound | proportion of detected metabolite with suppressor compared to analysis without suppressor (carboxyl esterase) | metabolite detected in exhaled breath by GC-MS (carboxyl esterase) | decrease of mass chromatogram signal intensity as a function of inhalation/exhalation cycles (release in exhaled breath) (human respiratory tract [1]) | metabolite signal in exhaled breath in presence of suppressor [2] | olfactory threshold / odour intensity (olfactory perception) | amount of metabolite detected in exhaled breath by GC-MS (human respiratory tract [3]; [4]) | also measured
1 | COc1ccc(CCC(C)=O)cc1 [ketanone] | – | – | retarded release of the more hydrophilic metabolite is observed | significantly decreased signal intensity for the metabolite | significantly less intense | – | metabolite detected in exhaled breath (mass chromatogram signal) (human respiratory tract [1]; inhalation and exhalation through the nose, human test subject): a compound is detected at m/z 165 which corresponds to 4(4-hydroxyphenyl)butan-2-one (raspberry ketone)
2 | CC(=O)CCc1ccc(O)cc1 [4-(4-hydroxyphenyl)butan-2-one] | – | – | – | – | very low olfactory threshold | – | –
3 | COCC(=O)c1ccccc1 [2-methoxyacetophenone] | – | – | decreases relatively quickly, within about 30 inhalation/exhalation cycles | considerably less metabolite is formed in presence of the suppressor | – | only in a small amount barely detectable | metabolite signal in exhaled breath (human respiratory tract [1]; first variant: inhalation and exhalation both through the mouth): no signal corresponding to the metabolite is detected; amount of metabolite detected in exhaled breath by GC-MS (human respiratory tract [3]; inhalation through the mouth, exhalation through the nose): significantly more metabolite is detected
4 | O=C(CO)c1ccccc1 [2-hydroxyacetophenone] | – | – | still near maximal intensity after 30 inhalation/exhalation recordings | – | – | – | –

More lines, main results first:

Row | proportion of detected metabolite with suppressor compared to analysis without suppressor (carboxyl esterase) | metabolite detected in exhaled breath by GC-MS (carboxyl esterase) | Compound | decrease of mass chromatogram signal intensity as a function of inhalation/exhalation cycles (release in exhaled breath) (human respiratory tract [1]) | metabolite signal in exhaled breath in presence of suppressor [2] | olfactory threshold / odour intensity (olfactory perception) | amount of metabolite detected in exhaled breath by GC-MS (human respiratory tract [3]; [4]) | also measured
5 | significantly lower | styrallylalcohol is detected | CC(=O)OC(C)c1ccccc1 (stereo not drawn) [styrallylacetate] | – | – | – | Less styrallylalcohol (metabolite) is detected | metabolite detected in exhaled breath by GC-MS (human respiratory tract [3]; inhalation and exhalation through the nose): Significant amounts of styrallylalcohol and acetic acid (metabolites) are detected; olfactory threshold combined with modulator versus odorant alone (carboxyl esterases; dose response curve, one olfactometer, modulator constant): lower than the determined olfactory threshold for styrallylacetate alone; perceived intensity of the odorant in presence of the potential modulator (carboxyl esterases; odorant flow 20 ml/min constant, modulator flow varied 1 to 900 ml/min, below its olfactory threshold, versus reference without modulator): intensity of the odorant is increased; odour intensity in presence of modulator versus reference (JND protocol) (carboxyl esterases; styrallylacetate 20 ml/min in both cascades, modulator 5 ml/min in cascade 2): stronger than the reference concentration; olfactory threshold relative to its metabolite (olfactory perception; compared with styrallylalcohol): lower threshold than its metabolite styrallylalcohol
6 | about 50% | phenethylalcohol is detected | CC(=O)OCCc1ccccc1 [phenethylacetate] | – | – | – | – | –
